Experiments:
NCI-H1299 cells = assay: Drug synergy analysis, PKC412 with etoposide (VP16), sub-G1 flow cytometry
NCI-H1299 = assay: Cell cycle distribution by flow cytometry; type: cell-based; details: 50 μM PKC412, 24 hours
[1] = phase I study, cited from earlier work
cancer cell lines = details: cited from earlier work
[2] = tested on: NSCLC cell lines expressing BAK under the control of a tetracycline-regulated promoter; assay: Apoptosis induced by PKC inhibitors with conditional BAK expression (DOX), sub-G1 / TMRE / caspase cleavage immunoblot; type: cell-based; details: drug-resistant NSCLC cells (A549, NCI-H1299), 48 hours
Procedure: NSCLC cell lines known in the art were obtained. Unless otherwise specified, NSCLC cells were grown on tissue culture dishes (BD Falcon) in Dulbecco's Modified Eagle Medium supplemented with 10% fetal bovine serum, glucose, L-glutamine and penicillin/streptomycin in a humidified atmosphere at 5% CO2. NSCLC cells conditionally expressing transgenic BAK were obtained using the BD RevTet-On vector system (BD Clontech). A BamHI fragment encoding the full length human BAK cDNA was generated by PCR, confirmed by sequencing, and cloned into the pRevTRE vector. A retroviral BCL-XL expression vector has been described previously (26). Replication-defective retroviral virions were produced by standard calcium phosphate transfection in the FNX ampho packaging cell line (a gift from Dr G. P. Nolan, Stanford). Transductions were performed using filtered supernatants, and populations were selected with hygromycin B and puromycin in the absence of tetracycline, or were obtained by fluorescence activated cell sorting (Coulter) of EGFP-positive cells. […]
Cells with subdiploid DNA content (sub-G1) were quantified by flow cytometry after 48 hours. […] Cells that maintained Δψm (TMRE+) were quantified by TMRE-staining and flow cytometry after 48 hours. […] Whole cell extracts were obtained at 24 hours, and the cleavage of caspase-9, caspase-3 and the caspase substrate PARP was detected by immunoblotting.

[3] = tested on: phosphorylation of protein kinase B/AKT and glycogen synthase kinase 3-beta; assay: Immunoblotting of downstream targets of PKC signal transduction after PMA stimulation; type: cell-based; details: drug-resistant and drug-sensitive cell lines; PKC412 1 to 10 μM for 2 hours, then PMA 1 μM 10 minutes
Procedure: Immunoblotting and cell fractionation was performed as described previously (38, 39) using primary antibodies against caspase-9 (Chemicon), caspase-3, BCL-XL, cytochrome c (BD Pharmingen), BAX, BAK, PARP (Upstate), AKT, phospho-AKT, GSK-3beta, phospho-GSK3beta (Cell Signaling), and actin (ICN).

lung cancer xenograft = details: mouse, in vivo; cited from earlier work
A549 cells = assay: Drug synergy analysis, PKC412 with etoposide (VP16), sub-G1 flow cytometry; type: cell-based
Procedure: (§1) All other drugs were purchased from Sigma.
(§2) After 48 hours, the fraction of cells with subdiploid DNA content (sub-G1) was quantified by flow cytometry. DMSO-treated cells (white bars) served as negative controls.

NCI-H460 cells = assay: as above; type: cell-based; details: simultaneous 25 μM etoposide and escalating PKC412 (0-100 μM), 48 hours
Procedure: as §1, §2

[4] = tested on: NSCLC cells expressing BAK under the control of a tetracycline-regulated promoter; assay: Apoptosis facilitated by conditionally expressed transgenic BAK; type: cell-based; details: BAK induced by DOX; data not shown
[5] = simultaneous 25 μM etoposide and escalating PKC412 (0-100 μM), 48 hours

Molecule | apoptosis induced by VP16 given subsequently to PKC412 (NCI-H1299 cells; 50 μM PKC412 24 hours, then 25 μM etoposide another 24 hours) | effect of PKC412 on VP16-induced apoptosis (NCI-H1299 cells; [5]) | cell cycle distribution after pre-treatment with PKC412 (NCI-H1299) | safety of combination with CDDP/gemcitabine ([1]; patients with advanced NSCLC, with standard cytotoxic regimen of CDDP/gemcitabine) | safety and feasibility of oral administration ([1]; patients with advanced cancers, oral) | effect on cancer cell lines (cancer cell lines) | sensitisation to PKC412-mediated apoptosis by inducible expression of BAK [2] | phosphorylation of downstream targets of PKC signal transduction (AKT, GSK-3beta) [3] | effects in murine xenograft model of lung cancer (lung cancer xenograft) | apoptosis after PKC412 pre-treatment versus VP16 pre-treatment (A549 cells; 50 μM PKC412 and 25 μM etoposide, sequential, 24 hours each) | cytotoxicity of combined treatment with PKC412 and VP16 (A549 cells; [5]) | apoptosis with PKC412 plus VP16 compared to VP16 alone (NCI-H460 cells) | effect on apoptosis facilitated by transgenic BAK [4]
CO[C@@H]1[C@H](N(C)C(=O)c2ccccc2)C[C@H]2O[C@]1(C)n1c3ccccc3c3c4c(c5c6ccccc6n2c5c31)C(=O)NC4 [PKC412, N-[(9S,10R,11R,13R)-2,3,10,11,12,13-hexahydro-10-methoxy-9-methyl-1-oxo-9,13-epoxy-1H,9H-diindolo[1,2,3-gh:3′,2′,1′-Im]pyrrolo[3,4j][1,7]benzodiazonin-11-yl]-N-methylbenzamide] | reduced the amount of apoptosis | protected NCI-H1299 cells against VP16-induced apoptosis | cell cycle arrest in the G2/M-phase | established | safe and feasible | induced cell cycle arrest or apoptosis | Sensitized | effectively reduced | antitumoral and antiangiogenic effects | did not significantly differ | additive cytotoxicity | no further increase in apoptosis | 
CN[C@@H]1C[C@H]2O[C@@](C)([C@@H]1OC)n1c3ccccc3c3c4c(c5c6ccccc6n2c5c31)C(=O)NC4 [staurosporine] |  |  |  |  |  | induced cell cycle arrest or apoptosis |  |  | antitumoral and antiangiogenic effects |  |  |  | 
zVAD-fmk |  |  |  |  |  |  |  |  |  |  |  |  | inhibited
